These results are taken from ChEMBL document CHEMBL1201862, “PubChem BioAssay data set” (2004).

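Grown in 96-well plates, cells were treated for 48 hours with each compound at five concentrations. Insufficient inhibition: endpoint recorded as highest concentration tested. Here, GI50 denotes the concentration required for 50% inhibition of growth.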 The source made the active and inactive calls. Rule as the data show it: active = GI50 up to about 1.1 µM and inactive = higher.

Some test systems named below: A498; BT-549; CAKI-1; EKVX; Hs-578T; IGROV-1; K562; KM12; LXFL 529; MDA-MB-231; MDA-MB-435; MDA-N; NCI-H522; OVCAR-3; RPMI-8226; SF-268; SK-MEL-5; SW-620; UACC-62; UO-31.
Holding throughout (assay): inhibition of tumour cell growth, NCI panel, 48 h

Turning to `CC1=C(N2CC2)C(=O)C(C)=C(N2CC2)C1=O`, the GI50 is 0.178 µM (active) with A498; 0.417 µM (active) in the assay on BT-549; 0.0991 µM (active) in the assay on CAKI-1; 0.697 µM (active) with EKVX; 0.933 µM (active) with Hs-578T; 0.215 µM (active) in the assay on IGROV-1. The GI50 is 0.254 µM (active) in the assay on K562; 0.279 µM (active) in the assay on KM12; 0.2 µM (active) in the assay with LXFL 529; 4.01 µM (inactive) in the assay with MDA-MB-231; 0.288 µM (active) in the assay on MDA-MB-435; 0.0998 µM (active) with MDA-N. Further, the GI50 in the assay on NCI-H522 was 0.0998 µM (active); with OVCAR-3, 0.249 µM (active); in the assay on RPMI-8226 it was 0.201 µM (active); in the assay with SF-268, 0.0834 µM (active); in the assay on SK-MEL-5 it was 0.155 µM (active); in the assay with SW-620 it was 0.143 µM (active). The GI50 in the assay on UACC-62 is 0.0579 µM (active); with UO-31 it was 0.0912 µM (active).

Turning to `Cc1cc(C)n(-c2c(O)ccc(O)c2-n2nc(C)cc2C)n1`, the GI50 in the assay with A498, in the assay with CAKI-1, in the assay on EKVX, in the assay with IGROV-1, in the assay with K562 and in the assay with KM12 was > 100 µM (inactive) in each case. Further, the GI50 in the assay on LXFL 529, in the assay on NCI-H522, in the assay with OVCAR-3, in the assay with RPMI-8226, in the assay on SF-268 and with SK-MEL-5 was > 100 µM (inactive) throughout. The GI50 with SW-620, in the assay with UACC-62 and with UO-31 was > 100 µM (inactive) each time.

In the case of `CN1CCCc2nc3ccccc3n2C1`, the GI50 in the assay on A498, in the assay on CAKI-1, with EKVX, in the assay with IGROV-1, in the assay on K562 and in the assay with KM12 was > 100 µM (inactive) in each case. Besides, the GI50 was > 100 µM (inactive) in the assay with LXFL 529; 97.7 µM (inactive) in the assay with NCI-H522; > 100 µM (inactive) in the assay with OVCAR-3; 23.7 µM (inactive) in the assay with RPMI-8226; > 100 µM (inactive) in the assay on SF-268; > 100 µM (inactive) in the assay on SK-MEL-5. Moreover, the GI50 in the assay on SW-620, in the assay on UACC-62 and in the assay with UO-31 was > 100 µM (inactive) throughout.

For `Cc1cccc(NC(=O)c2cc3cc(/N=N/c4ccccc4Cl)ccc3oc2=O)c1`, the GI50 in the assay on A498 is > 100 µM (inactive); in the assay on CAKI-1 it was 41.1 µM (inactive); in the assay on EKVX, 53.1 µM (inactive); in the assay with IGROV-1, 32.1 µM (inactive); in the assay on K562, 61 µM (inactive); in the assay on KM12, 15.4 µM (inactive). The GI50 in the assay with LXFL 529 was 27.2 µM (inactive); in the assay on NCI-H522, 22.3 µM (inactive); in the assay with OVCAR-3, 26.8 µM (inactive); with RPMI-8226, 19.9 µM (inactive); in the assay with SF-268 it was 23.3 µM (inactive); with SK-MEL-5, 19.8 µM (inactive). Besides, the GI50 in the assay on SW-620 was 54.1 µM (inactive); with UACC-62 it was 16.3 µM (inactive); in the assay on UO-31 it was 13.3 µM (inactive).
